{"source": "patent US4857540A", "about": "“Dopamine-β-hydroxylase inhibitors” (SmithKline Beckman Corporation, priority 1987, dated 1989)", "key": {"[1]": {"molecular_target": "T1, dopamine-β-hydroxylase (DBH) (Bos taurus, UniProt P15101)", "T1 sequence (P15101 1-610)": "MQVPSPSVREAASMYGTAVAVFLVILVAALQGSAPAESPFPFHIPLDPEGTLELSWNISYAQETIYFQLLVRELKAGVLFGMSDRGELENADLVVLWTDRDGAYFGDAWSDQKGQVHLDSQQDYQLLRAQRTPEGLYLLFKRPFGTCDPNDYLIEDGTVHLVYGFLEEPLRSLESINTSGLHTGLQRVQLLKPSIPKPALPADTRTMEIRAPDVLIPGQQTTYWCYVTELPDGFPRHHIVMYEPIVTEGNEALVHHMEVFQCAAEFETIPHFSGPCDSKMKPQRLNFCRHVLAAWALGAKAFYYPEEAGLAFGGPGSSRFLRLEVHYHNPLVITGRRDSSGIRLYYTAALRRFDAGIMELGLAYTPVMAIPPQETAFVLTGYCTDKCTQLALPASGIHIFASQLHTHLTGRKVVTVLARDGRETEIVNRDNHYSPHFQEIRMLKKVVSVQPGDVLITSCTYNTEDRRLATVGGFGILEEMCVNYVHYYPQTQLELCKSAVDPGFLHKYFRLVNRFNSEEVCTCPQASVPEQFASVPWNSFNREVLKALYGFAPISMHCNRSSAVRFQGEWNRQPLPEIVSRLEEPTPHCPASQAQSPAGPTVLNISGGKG", "assay": "in vitro DBH inhibition, conversion of tyramine to octopamine (absorbance at 330 nm)", "assay_type": "biochemical", "description": "Compounds of the invention and other compounds useful in the method of the invention were screened for in vitro DBH inhibition by a standard procedure for assaying conversion of tyramine to octopamine in the presence of DBH. Octopamine was assayed following sodium periodate oxidation to p-hydroxybenzaldehyde by measuring spectrophotometric absorbance at 330 nm. Inhibition is given in molar concentration of compound at which DBH activity was halved (IC50). Melting points (mp) are given in °C."}, "[2]": {"assay": "mean arterial blood pressure, indwelling cannulae in tail artery", "assay_type": "in vivo, Spontaneously hypertensive rats", "conditions": "50 mg/kg i.p.", "description": "Further, the same rats were dosed with a suspension or solution at a dose of 50 mg/kg of test compound i.p. and mean arterial blood pressure determined with indwelling cannulae inserted into the tail artery."}, "[3]": {"system": "peripheral dopamine (DA) and norepinephrine (NE) levels", "assay": "effects in vivo on peripheral dopamine (DA) and norepinephrine (NE) levels", "parameters": "species or system Spontaneously hypertensive rats", "conditions": "dosed twice about 18 hours apart, sacrificed about 2 hours after second dose, mean of 5 animals; for DA / NE: per gram of tissue", "description": "Various compounds of the invention were tested for their effects in vivo on peripheral dopamine (DA) and norepinephrine (NE) levels substantially by the procedure of DaPrada and Zurcher, Life Sci., 19, 1161, (1976). Spontaneously hypertensive rats were dosed twice, the second dose being abut 18 hours after the first, and were sacrificed about 2 hours after the second dose."}, "[4]": {"conditions": "Teresawa et al., Japan, Cir. J. 35, 339 (1971); cited from earlier work"}, "[5]": {"molecular_target": "T1, dopamine-β-hydroxylase (DBH)", "assay": "in vitro DBH inhibition, conversion of tyramine to octopamine (absorbance at 330 nm)", "assay_type": "biochemical", "conditions": "read-out: DBH inhibition, % at 10^-4 M"}, "[6]": {"conditions": "in vitro, tyramine to octopamine, read-out: IC50 value (molar concentration of compound at which DBH activity was halved)"}}, "note": "Counter-ions that a name gives are not always drawn. Like-named read-outs stand apart in the source and are kept apart here.", "data": [{"smiles": "Fc1cc(F)cc(Cn2c(S)nc3ccccc32)c1", "note": "[Example 6, 1-(3,5-difluorobenzyl)-2-mercaptobenzimidazole]", "values": [{"measurement": "IC50", "setting": "[1]; [6]", "value": 6.2, "unit": "µM"}, {"measurement": "mean arterial pressure", "setting": "[2]", "value": "significant reduction in mean arterial pressure"}, {"measurement": "DA/NE Ratio", "setting": "[3]", "value": 0.086}, {"measurement": "DA", "setting": "[3]", "value": 0.607, "unit": "µg/g"}, {"measurement": "NE", "setting": "[3]", "value": 7.054, "unit": "µg/g"}]}, {"smiles": "NCc1nc2ccccc2n1Cc1ccccc1", "note": "[Example 37, 1-Benzyl-2-aminomethylbenzimidazole hydrochloride]", "values": [{"measurement": "IC50", "setting": "[1]; [6]", "value": 0.12, "unit": "µM"}]}, {"smiles": "Oc1c(Cl)cc(Cn2c(S)nc3ccccc32)cc1Cl", "note": "[Example 8, 1-(3,5-dichloro-4-hydroxybenzyl)-2-mercaptobenzimidazole]", "values": [{"measurement": "IC50", "setting": "[1]; [6]", "value": 3.8, "unit": "µM"}]}, {"smiles": "NCc1nc2ccccc2n1Cc1cccc(Cl)c1", "note": "[Example 40, 1-[3-chlorobenzyl]-2-aminomethylbenzimidazole dihydrochloride]", "values": [{"measurement": "IC50", "setting": "[1]; [6]", "value": 113, "unit": "µM"}]}, {"smiles": "NCc1nc2ccccc2n1Cc1ccc(Cl)c(Cl)c1", "note": "[Example 38, 1-[3,4-Dichlorobenzyl]-2-aminomethylbenzimidazole dihydrochloride]", "values": [{"measurement": "IC50", "setting": "[1]; [6]", "value": 69, "unit": "µM"}]}, {"smiles": "CCCCc1ccc(C(=O)O)nc1", "note": "[fusaric acid, reference compound]", "values": [{"measurement": "IC50", "setting": "[1]", "value": "~0.8", "unit": "µM"}, {"measurement": "hepatotoxicity", "setting": "[4]", "value": "hepatotoxic"}]}, {"smiles": "Sc1nc2ccccc2n1Cc1c(Cl)cccc1Cl", "note": "[Example 2, 1-(2,6-dichlorobenzyl)-2-mercaptobenzimidazole]", "values": [{"measurement": "inhibition at 100 µM", "setting": "[5]", "value": 60, "unit": "%"}]}, {"smiles": "NCc1nc2ccccc2n1Cc1cccc(F)c1", "note": "[Example 39, 1-[3-fluorobenzyl]-2-aminomethylbenzimidazole dihydrofluoride]", "values": [{"measurement": "IC50", "setting": "[1]; [6]", "value": 130, "unit": "µM"}]}, {"smiles": "COc1c(F)cc(Cn2c(S)nc3ccccc32)cc1F", "note": "[Example 3, 1-(3,5-difluoro-4-methoxybenzyl)-2-mercaptobenzimidazole]", "values": [{"measurement": "DA/NE Ratio", "setting": "[3]", "value": 0.055}, {"measurement": "DA", "setting": "[3]", "value": 0.397, "unit": "µg/g"}, {"measurement": "NE", "setting": "[3]", "value": 7.82, "unit": "µg/g"}]}, {"smiles": "Oc1ccc(Cn2c(S)nc3ccccc32)cc1", "note": "[Example 10, 1-(4-hydroxybenzyl)-2-mercaptobenzimidazole]", "values": [{"measurement": "IC50", "setting": "[1]; [6]", "value": 13, "unit": "µM"}]}, {"smiles": "Sc1nc2ccccc2n1Cc1ccccc1", "note": "[Example 5, N-benzyl-2-mercaptobenzimidazole]", "values": [{"measurement": "IC50", "setting": "[1]; [6]", "value": 61, "unit": "µM"}]}, {"smiles": "Oc1c(F)cc(Cn2c(S)nc3ccccc32)cc1F", "note": "[Example 9, 1-(3,5-difluoro-4-hydroxybenzyl)-2-mercaptobenzimidazole]", "values": [{"measurement": "IC50", "setting": "[1]; [6]", "value": 0.66, "unit": "µM"}]}, {"smiles": "COc1ccc(Cn2c(S)nc3ccccc32)cc1", "note": "[Example 7, 1-(4-methoxybenzyl)-2-mercaptobenzimidazole]", "values": [{"measurement": "inhibition at 100 µM", "setting": "[5]", "value": 6, "unit": "%"}]}, {"smiles": "Sc1nc2ccccc2n1Cc1cc(Cl)cc(Cl)c1", "note": "[Example 4, 1-(3,5-dichlorobenzyl)-2-mercaptobenzimidazole]", "values": [{"measurement": "inhibition at 100 µM", "setting": "[5]", "value": 70, "unit": "%"}]}]}
